Measured values: patent US20210330756A1, “Acetylation of Miro1” (University of South Carolina, priority 2020, published 2021)

How the values were obtained:
[1] = system: sciatic nerve axonal mitochondria; assay: In vivo imaging of axonal mitochondrial transport in sciatic nerve; set-up: species or system mouse
Procedure: Together, these experiments indicate that HDAC6 activity impacts axonal mitochondrial transport in vitro and in vivo.
Sciatic nerves were exposed in live, isofluorane-anaesthetized animals (female C57BL6/J mice aged 41-42 d after birth) as previously reported (Gibbs et al., 2016; Sleigh and Schiavo, 2016). Briefly, 10-μ1 glass micropipettes (Drummond Scientific; 5-000-1001-X10) were pulled (Mohan et al., 2015) and used to inject 2 μl of 1.5 mM TubA or DMSO (Sigma-Aldrich; D2650) vehicle control in sterile saline (0.9% wt/vol) into the proximal aspect of the exposed sciatic nerve. 2 μM tetramethylrhodamine, ethyl ester, perchlorate (Thermo Fisher Scientific; T669), and 0.1% (wt/vol) bromophenol blue (Sigma-Aldrich; B5525) were included in the injected solution to label mitochondria and confirm successful injection beneath the perineurium, respectively.
Body temperature was maintained using a heat pad during surgery and drug incubation. Sciatic nerves were imaged from 20 to 90 min after injection using an inverted LSM 780 laser scanning microscope (Zeiss) Plan-Apochromat 63×/1.4 NA Oil DIC M27 objective within an environmental chamber prewarmed and set to 37° C. An area containing labeled axons was selected and imaged for 444-1,000 s at 100×digital zoom every ˜4 s (1,024×1,024 pixels, 0.5-μs pixel dwell time, 1% laser power). Four animals were imaged per day (two per treatment). Image series were converted into AVI files, and mitochondrial dynamics were assessed using Kinetic Imaging Software. Mitochondria were included in analyses when they could be tracked for at least five consecutive frames. At least 10 mitochondria (mean of 49.1) across at least three axons (mean of 4.38) per animal were tracked, and all analyses were performed blinded to treatment.

[2] = system: axon shaft mitochondria of DRG neurons; assay: FRAP of Mito-GFP in proximal axon shaft segments of DRG neurons; format: cell-based, rat
From the text: To determine if the effect of growth inhibitors on mitochondrial recovery was limited to distal axons, we performed FRAP on more proximal segments of the axon shaft in DRG neurons expressing Mito-GFP. For analyses of recovery, the bleached ROIs were divided into four subregions along the axon length so that we could distinguish anterograde from retrograde transport-driven Mito-GFP recovery. […] Since this effect of MAG-Fc on recovery could derive from either axons or cell body, we cultured dissociated DRGs in microfluiclic devices where we could limit exposure to MAG-Fc and TubA to the axons.
Mito-KR- and Mito-GFP-expressing DRG neurons were used for FRAP analyses at 48-72 h after transfection. To evaluate mitochondrial motility in Mito-KR-expressing neurons, Mito-KR signals were photobleached using continual exposure to an argon laser set at 594 nm for 30 s (100% laser power) The bleached ROI was then monitored for recovery using an argon laser set at 580 nm every 10 s over 16 min (13% laser power). […]
Vesicle trafficking was quantified using differential ImageJ Difference Tracker Plug-in (Andrews et al., 2010). 50-80-μm long unbranched axon segments at approximately the mid-region between growth cone and cell body were analyzed. […] The distance between the growth tip at end of the post-CALI sequence and the pre-CALI baseline was measured using LAS-X software. […]

[3] = system: rat embryonic cortical neurons; details: 10 μM; cited from earlier work

## CN1CCc2c(c3ccccc3n2Cc2ccc(C(=O)NO)cc2)C1 [TubA, tubastatin]
[1]; retrogradely versus anterogradely moving, after TubA
  pausing of moving mitochondria: significantly increased pausing for retrogradely versus anterogradely moving mitochondria
[1]; sciatic nerve injection, 2 μl of 1.5 mM, in vivo imaging
  ratio of anterogradely to retrogradely moving axonal mitochondria: increased
[1]; sciatic nerve injection, in vivo imaging
  significance of antero/retrograde ratio and speed of movement vs vehicle control: neither this nor the speed of movement showed significant differences
[2]; HDAC6 inhibition with TubA
  effect on MAG-Fc's attenuation of axonal Mito-GFP recovery (axon shaft): prevented by HDAC6 inhibition
[2]; TubA-treated cultures
  Mito-GFP recovery pattern along axon shaft: more rapid recovery in proximal segments
[3]
  histone acetylation: no effect on histone acetylation
  levels of acetyl (Ac) α-tubulin: increases levels of acetyl (Ac) α-tubulin
